# Read-outs that look alike come from different tables or passages of the source.
# System: HCV proteins in Rep5.1 cells (replicon cell line)
# Assay: Inhibitory activity of HCV: cell-based ELISA in replicon cell line Rep5.1 (decrease of HCV proteins)
# Set-up: species or system hepatitis C virus
# Details: Rep5.1 cells, 72 hours with drug
# Method in brief: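 HCV protein loss was quantified by ELISA on methanol/acetone-fixed cells 72 h after drug addition, probing with selected HCV-positive human plasma, and IC50 was defined as 50% reduction relative to untreated wells. The cells were Rep5.1 replicon cells cultured in DMEM-10 with 500 μg/ml G418, plated at 5000 per well and dosed with serial dilutions after 4 h attachment.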
# [1] = Hepatitis C virus, 72 h, concentration at which 50% of HCV proteins was decreased, Table 2, read-out: IC50
# [2] = Hepatitis C virus, 72 h, decrease of HCV proteins measured by HCV antibody, Table 1, read-out: Level (IC50 values classified)
SMILES,IC50 [1] [µM],IC50 [2] [µM],"IC50 (concentration at which 50% of HCV proteins was decreased, Table 2, read-out: IC50) [µM]"
"CC1=C(C(=O)OCCc2c(F)c(F)cc(F)c2F)C(CF)NC(=S)N1 (stereo not drawn) [65′, 4-fluoromethyl-6-methyl-2-thioxo-1,2,3,4-tetrahydro-pyrimidine-5-carboxylic acid 2-(2,3,5,6-tetrafluoro-phenyl)-ethyl ester]",1.4,1 to 10,
"COc1ccc(CSC(=O)C2=C(C)NC(=S)NC2)cc1 [Compound 121, 6-methyl-2-thioxo-1,2,3,4-tetrahydro-pyrimidine-5-carbothioic acid S-(4-methoxy-benzyl)ester]",0.5,< 1,
"CC1=C(C(=O)OCc2sccc2C)CNC(=S)N1 [Compound 202, 6-methyl-2-thioxo-1,2,3,4-tetrahydro-pyrimidine-5-carboxylic acid 3-methyl-thiophen-2-ylmethyl ester]",9,1 to 10,
"CC1=C(C(=O)OCc2cccc(SC(F)(F)F)c2)C(CO)NC(=S)N1 (stereo not drawn) [33″, 4-hydroxymethyl-6-methyl-2-thioxo-1,2,3,4-tetrahydro-pyrimidine-5-carboxylic acid 3-trifluoromethylsulfanyl-benzyl ester]",< 0.4,< 1,
"CCc1ccc(COC(=O)C2=C(C)NC(=S)NC2)o1 [Compound 264, 6-methyl-2-thioxo-1,2,3,4-tetrahydro-pyrimidine-5-carboxylic acid 5-ethyl-furan-2-ylmethyl ester]",13,10 to 20,
"CC1=C(C(=O)OCc2cc3c(C)nn(C)c3s2)CNC(=S)N1 [Compound 223, 6-methyl-2-thioxo-1,2,3,4-tetrahydro-pyrimidine-5-carboxylic acid 1,3-dimethyl-1H-thieno[2,3-c]pyrazol-5-ylmethyl ester]",6,1 to 10,
"CC1=C(C(=O)OCCOc2ccccc2)CNC(=S)N1 [Compound 163, 6-methyl-2-thioxo-1,2,3,4-tetrahydro-pyrimidine-5-carboxylic acid 2-phenoxy-ethyl ester]",2.5,1 to 10,
"CCOC(=O)CCCC1=C(C(=O)OCc2ccccc2)CNC(=S)N1 [Compound 169, 6-(3-ethoxycarbonyl-propyl)-2-thioxo-1,2,3,4-tetrahydro-pyrimidine-5-carboxylic acid benzyl ester]",9,1 to 10,
"CC1=C(C(=O)OCCc2ccccc2)C(CF)NC(=S)N1 (stereo not drawn) [33′, 4-fluoromethyl-6-methyl-2-thioxo-1,2,3,4-tetrahydro-pyrimidine-5-carboxylic acid phenethyl ester]",1,< 1,
"CC1=C(C(=O)OCC2COc3ccccc3O2)CNC(=S)N1 (stereo not drawn) [Compound 195, 6-methyl-2-thioxo-1,2,3,4-tetrahydro-pyrimidine-5-carboxylic acid 2,3-dihydro-benzo[1,4]dioxin-2-ylmethyl ester]",2,1 to 10,
"COc1cc(COC(=O)C2=C(C)NC(=S)NC2)cc(Br)c1OC [Compound 178, 6-methyl-2-thioxo-1,2,3,4-tetrahydro-pyrimidine-5-carboxylic acid 3-bromo-4,5-dimethoxy-benzyl ester]",1.5,1 to 10,
"CC1=C(C(=O)OCC#Cc2cccs2)CNC(=S)N1 [Compound 239, 6-methyl-2-thioxo-1,2,3,4-tetrahydro-pyrimidine-5-carboxylic acid 3-thiophen-2-yl-prop-2-inyl ester]",,,< 0.4
"CC1=C(C(=O)OCCc2cccc([N+](=O)[O-])c2)C(COC(=O)c2ccc(C(=O)O)cc2)NC(=S)N1 (stereo not drawn) [90″, terephthalic acid mono-{6-methyl-5-[2-(3-nitro-phenyl)-ethoxycarbonyl]-2-thioxo-1,2,3,4-tetrahydro-pyrimidin-4-ylmethyl}ester]",6.9,1 to 10,
"COc1ccccc1CCOC(=O)C1=C(C)NC(=S)NC1 [Compound 115, 6-methyl-2-thioxo-1,2,3,4-tetrahydro-pyrimidine-5-carboxylic acid 2-(2-methoxy-phenyl)-ethyl ester]",0.7,< 1,
